In a melting point compilation (Tetko et al.; mined from patent text by program, amines drawn as free bases though some values may be those of a salt):

Point of comparison: `OCC=Cc1cccc(-c2nnn[nH]2)c1`, melting point 174 °C. Against it:
- CCOC(=O)C(O)(CC(=O)c1ccc(-c2ccccc2)cc1)C(=O)OCC — lower, 88 to 88.3 °C
- CCOC(=O)Nc1cc(N)ccc1F — lower, 88 to 89 °C
- CCn1c2ccccc2c2oc(C#N)cc(=O)c21 — higher, 184 to 185 °C
- O=C1c2ccccc2C(=O)N1CCc1ccc(OC2c3ccccc3CCc3ccccc32)cc1 — higher, 205 to 207 °C
- Cc1nc2n(C)nc(C)n2c(=O)c1CCCl — lower, 140 °C
- COc1cc(Br)c(OC(=O)c2ccc(OC)c(F)c2)c(NC(=O)c2ccc(OC)c(F)c2)c1 — higher, 184 to 186 °C
- C#CCOc1noc2ccc(N3C(=O)C4=C(CCCC4)C3=O)cc12 — lower, 147 to 148 °C
- CNCCC1CN(c2c(F)cc3c(=O)c(C(=O)O)cn(C4CC4)c3c2F)CCO1 (stereo unspecified) — higher, 243 to 251 °C
- Cc1ccc(CSc2nnc(-c3ccc4c(c3)CCO4)o2)cc1 — higher, 190 to 191 °C
- COC(=O)c1ccc(-c2nc(-c3ccc(C(F)(F)F)cc3)no2)cc1 — higher, 177 to 178 °C
- CNS(=O)(=O)Cc1ccc(NN=CCSc2ccccc2)cc1 — lower, 110 to 112 °C
- Cc1ccccc1-c1cc(Cl)ncc1C#N — lower, 112 °C
- COc1ccccc1Oc1cccc(CC(=O)O)c1OC — lower, 121 to 122 °C
- CCc1ccc2c(C=O)c3ccccc3c(C=O)c2c1 — lower, 99 to 100 °C
- CC1=CC(=O)C=C2CCC3C4CCC(=O)C4(C)CCC3C12C (stereo unspecified) — lower, 165 to 167 °C
- CCCCCCCCCCCCOc1ccc(C(C)=O)o1 — lower, 66 to 67 °C
- CC(C)c1ccc2nc3ccc(C(=O)NCCCCn4ccnc4)cn3c(=O)c2c1 — lower, 165 to 167 °C
- ClCc1ccc(OCc2csc(-c3ccccc3)n2)nc1 — lower, 117 to 118 °C
- O=C(Nc1cc(-c2c(-c3ccc(Cl)cc3)nc3cccnn23)ccn1)c1ccccc1 — higher, 218 to 219 °C
- C=CCCc1ccc(C(N)=O)c(O)n1 — higher, 195 to 198 °C
- Cc1nccn1Cc1nc2ccccc2n1-c1ccccc1 — lower, 124 to 126 °C
- CNc1scc(C)c1C(=O)c1ccccc1 — lower, 144 to 145 °C
- O=c1cc(O)c2cccnc2n1Cc1ccccc1 — higher, 250 to 253 °C
- COc1ccc(-c2cc3cc(OC)cc(CC(F)(F)F)c3o2)cc1 — lower, 113 to 115 °C
- CC1Cc2cccc(S(=O)(=O)NC(C)(C)C)c2S1 (stereo unspecified) — lower, 97 to 98 °C
- CCOC(=O)c1ccc(C(F)(F)F)c(OC2CCOC2)n1 (stereo unspecified) — lower, 45 to 45.5 °C
- N#Cc1cc(O)cc2nc(-c3ccc(O)cc3)oc12 — higher, 180 to 183 °C
- CCCCC(Cc1ccc(OCCN(CC)CC)cc1)(C(=O)O)S(=O)(=O)c1ccc(OC)cc1 (stereo unspecified) — lower, 67 °C
- O=C(COc1cccc(C(F)(F)F)c1)N[C@@H](Cc1ccccc1)C(=O)CSCc1ccco1 — lower, 72 to 80 °C
- Nc1ncnc2c1ncn2C1CC(C=Cc2ccccc2)C(CO)O1 (stereo unspecified) — higher, 215 to 217 °C
- CN1C(=O)N(c2cc(Cl)cc(Cl)c2)C(=O)[C@]12CN(C1CC1)C[C@H]2c1ccc(C#N)cc1 (relative stereo) — higher, 216 °C
- CC(=O)OC1CSC(Oc2cncc(-c3ccc(C#N)c(Cl)c3)c2)C(OC(C)=O)C1OC(C)=O (stereo unspecified) — lower, 148 to 150 °C
- CS(=O)(=O)Nc1ccc(C(=O)Nc2cn3cc(Cl)ccc3n2)cc1 — higher, 293 to 295 °C
- Nc1ccc2ccc(N)nc2n1 — higher, 222 to 223 °C
- Cc1nc(C)c(C(C)(O)c2ccccc2)s1 (stereo unspecified) — lower, 131 to 132 °C
- CC(=O)NC(=O)NCC(=O)N1CC1C#N (stereo unspecified) — lower, 118 to 122 °C
- O=C(Oc1ccc(-c2ccc(O)c([N+](=O)[O-])c2)cc1)c1ccccc1 — lower, 163 °C
- CC1CCCCN1CCCNC(=O)c1ccccc1C(c1ccc(O)cc1)c1ccc(O)cc1 (stereo unspecified) — lower, 118 to 120 °C
- O=C1NC(=S)CCC1N1C(=O)c2ccccc2C1=O (stereo unspecified) — higher, 225 to 226 °C
- CC(CSCCSCCSCC(C)C(=O)Nc1ccc(Nc2ccccc2)cc1)C(=O)Nc1ccc(Nc2ccccc2)cc1 (stereo unspecified) — lower, 131 to 134 °C
- O=C(Nc1ccc(C(=O)N2Cc3ccccc3Cc3ccccc32)cc1)c1ccccc1OC(F)(F)F — higher, 232 to 235 °C
- COC(=O)CN1C(=O)C2=C(c3ccc(Cl)cc3C(c3ccccc3Cl)=NC2)C1C (stereo unspecified) — higher, 221 to 223 °C
- NCCc1nc(Cl)ccc1C(=O)O — lower, 158 to 160 °C
- CC(C)(C)OC(=O)N[C@H](CNc1ccccc1N)C(=O)O — lower, 158 to 160 °C
- CC[C@@H](O)CC(=O)N[C@H]1CC[C@H](CCN2CCN(c3nccc4c3OCC4)CC2)CC1 — lower, 146 °C
- NC(=O)c1ccccc1NC(=O)c1ccc(-n2nc(C(F)(F)F)cc2C(F)(F)F)cc1 — higher, 195 to 196 °C
- CC(O)C(O)c1nc2c(C(F)(F)F)cccc2c(O)c1C(=O)Nc1nccs1 (stereo unspecified) — higher, 275 °C
- CCOC(=O)C=Cc1ccc(OC)cc1OC — lower, 58 °C
- CC(=O)Nc1cc(F)ccc1C(=O)NCCN1CCC(n2c(=O)[nH]c3ccccc32)CC1 — higher, 210 °C
- CCc1nc(CCc2ccc(NC(=O)/C=C/c3cnn(CC)c3-c3ccc(F)cc3)cc2)cs1 — higher, 190 to 191 °C
- CCCC[C@H](NC(=O)C(CS)C(F)(F)F)C(=O)O (stereo partly specified) — lower, 96 to 98 °C
- O=C(CCCC(Cc1cccc2ccccc12)C(=O)O)c1ccccc1 (stereo unspecified) — lower, 134 to 136 °C
- O=[N+]([O-])c1ccc2c(c1)ncn2-c1ccccc1 — lower, 129 to 131 °C
- Cc1noc(C)c1S(=O)(=O)n1cnc2cnccc21 — lower, 130 to 135 °C
- CC(C(O)CCC(C)(C)C)C1CCC2C3CC=C4CC(O)CCC4(C)C3CCC12C (stereo unspecified) — higher, 191 to 193 °C
- C=CCN(CC=C)Cc1noc(-c2ncn3c2CN(C)C(=O)c2ccccc2-3)n1 — higher, 203 to 205 °C
- CC(=O)N1CCc2ccc(Cl)c(S)c2C1 — lower, 92 to 112 °C
- COc1ccc(N2CCN(CCn3c(=O)[nH]c4ccsc4c3=O)CC2)cc1 — lower, 130 to 131 °C
- CCCCCC(=O)CCn1ccnc1 — lower, 104 to 106 °C
- Cn1nc(C(F)(F)F)c(CN2C(=O)C3(COc4cc5c(cc43)OCO5)c3ccccc32)c1Cl (stereo unspecified) — higher, 180 to 182 °C
- CCC1Cc2c(N3CCOCC3)c(F)cc3c(=O)c(C(=O)O)cn1c23 (stereo unspecified) — higher, 275 to 278 °C
- OCc1conc1-c1ccc(Cl)c(Cl)c1 — lower, 103 to 104 °C
- COC(=O)C1Cc2c([nH]c3ccccc23)C(c2cc(OC)ccc2OC)N1C(=O)CCl (stereo unspecified) — lower, 108 to 111 °C
- O=C(CCCCCCCCCCCCC(=O)ON1C(=O)CCC1=O)OCc1ccccc1 — lower, 61.5 to 62.5 °C
- CCc1nc2nccc(C)c2[nH]1 — lower, 117 to 119 °C
- CCN(CC)CCNC(=O)c1cc(Cl)c(NC(=O)c2ccc3ccccc3c2)cc1OC — not separable, 173 to 174 °C
- COC(=O)C1=C(Cl)/C(=N/OS(=O)(=O)c2ccc(C)cc2)CC(c2ccc(Cl)c(OC)c2F)N1 (stereo unspecified) — lower, 62 to 64 °C
- O=C(CCl)c1ccc2c(c1)Cc1cc(C(=O)CCl)ccc1O2 — higher, 200 to 201 °C
- CCCCC1=Nc2ccccc2SN1Cc1ccc(-c2ccccc2C(=O)O)cc1 — lower, 125 to 130 °C
- CCOC(=O)C(C)Oc1ccc(N(C)c2cc3ccccc3c(O)n2)cc1 (stereo unspecified) — lower, 96 °C
- COc1cc2nc(Cl)nc(Cl)c2c(OC)c1OC — higher, 213 to 215 °C
- O=Cc1cccc(COc2cccc(-c3ccsc3)c2)c1 — lower, 62 to 63 °C
- c1cc(-c2ccc(-n3c4ccccc4c4ccccc43)cc2)cc(-n2c3ccccc3c3ccccc32)c1 — higher, 244 to 246 °C
- CC(C)C(NC(=O)OC(C)(C)C)C(=O)NC(C(=O)OC1CC(n2cc(C=CBr)c(=O)[nH]c2=O)OC1CCl)C(C)C (stereo unspecified) — lower, 114 to 116 °C
- N#Cc1cc(Cc2cccc(Cl)c2)ccc1N — lower, 84.5 to 85.5 °C
- CC(C)(C)c1ocnc1/C=C1\NC(=O)[C@H](Cc2ccccc2)NC1=O — lower, 52 to 56 °C
- COc1ccc(-c2cc(-c3ccccc3)c(-c3ccccc3)s2)c(OC)c1 — lower, 107 to 110 °C
- CS(=O)(=O)c1ccc(-c2cc(CCCC(=O)O)nn2-c2ccc(C(F)(F)F)cc2)cc1 — lower, 155 to 156 °C
- N#Cc1ccc(Nc2nc(Cl)nc(Cc3c(Cl)cccc3Cl)n2)cc1 — higher, 243 to 244 °C
- COc1cc2c(cc1Nc1ncc(Cl)c(N[C@H]3[C@@H](C(N)=O)[C@@H]4C=C[C@H]3C4)n1)NCCN(CC1CC1)C2 — lower, 149 to 151 °C
- Oc1ccc(C(F)(F)F)cc1C=S — lower, 50 to 52 °C
- COc1cc(N)c(Cl)cc1C(=O)NCC1CCN(CCCS(=O)(=O)Cc2ccc(Cl)cc2)CC1 — higher, 175 to 177 °C
- COc1ccc2c(c1N)C(CCNC(C)=O)CC2 (stereo unspecified) — lower, 94 to 97 °C
- COc1ccc(C2C(=O)OC3=CC(O)(OC(C)=O)C=CC3=C2C)c(OC)c1 (stereo unspecified) — lower, 146 to 148 °C
- CCCc1c(OCc2cccc(C(=O)OC)c2)ccc(C(C)=O)c1O — lower, 141 to 143 °C
- CCCCOC(=O)NC(=O)C(c1ccccc1)c1ccccc1 — lower, 82 to 84 °C
- CC(C)c1c(C=CC(=O)CC(O)CC(=O)O)c(-c2ccccc2)c2c3ccccc3ccn12 (stereo unspecified) — lower, 95 to 100 °C
- O=C(Cc1ccsc1)Nc1ccc(Br)cn1 — lower, 117 °C
- Nc1nc(-c2cc(Cl)ccc2Cl)nc(N2CCNC(=O)C2)n1 — higher, > 275 °C
- Nc1cc(-c2noc(-c3cnn4c(C(F)(F)F)cc(-c5ccc(C(F)(F)F)cc5)nc34)n2)ccn1 — higher, 277 °C
- COC(=O)c1ccc(-c2nc(-c3ccc(Cl)cc3)co2)cc1 — higher, 183 to 184 °C
- CNC(=O)c1ccc(-c2coc3ccc(-c4nnc(C)o4)cc23)c(Cl)c1 — higher, 250 to 251 °C
- O=C(COCCCl)Nc1ccc([N+](=O)[O-])cc1 — lower, 101 to 102 °C
- N#CCCNC(=O)c1cccc(-c2ccc3c(n2)C(Oc2ccc(Cl)cc2Cl)CC3)c1 (stereo unspecified) — higher, 193 to 194 °C
- CCn1cnc2c(Nc3cccc(C#N)c3)nc(Cl)nc21 — higher, 189 °C
- O=C(c1ccc(I)cc1)c1ccc2noc(-c3cccc(Cl)c3)c2c1 — higher, 196 °C
- CC(C)(C)OC(=O)N1CCC(Cn2cc(S(=O)(=O)c3ccccc3)c3ccccc32)CC1 — higher, 181 to 182 °C
- CS(=O)c1ccc(-c2nn(Cc3ccc(F)cc3)c(=O)cc2-c2ccc(F)cc2)cc1 (stereo unspecified) — higher, 198 °C
- COc1ccc2c(c1OC)CCCC2(O)CN (stereo unspecified) — lower, 138 to 140 °C
- COc1ccc(N2C(=O)[C@H](NC(=O)OC(C)(C)C)[C@@H]2CON2C(=O)c3ccccc3C2=O)cc1 (relative stereo) — higher, 188 to 189 °C
